Test results taken from patent publication US20250255856A1, “THERAPEUTIC COMPOSITIONS WITH IMINO SUGARS FOR THE TREATMENT OF DISEASES WITH ACCUMULATION OF HEPARAN SULFATE” (priority 2022, published 2025).
Structures can show the parent of a compound that is named as a salt.

Columns and labels:
[1] = system: human adult dermal fibroblasts HDFa; experiment: HS and Lamp1 immunofluorescence in control fibroblasts HDFa; format: cell-based; conditions: 20 μM, 48 hours
Protocol: (§1) To verify whether the selected iminosugars could exert the same effects also on the fibroblasts of patients affected by Sanfilippo disease, human adult dermal fibroblasts HDFa (purchased from Sigma-Aldrich) were used as control, and fibroblasts of patients affected by Sanfilippo A and B (MPS IIIA and IIIB) were used as disease model.
(§2) Cells were cultured in the presence of the selected L-iminosugars at a dosage of 20 μM and after 48 hours were treated for HS and Lamp1 immunofluorescence. Treatment with L-iminosugars had no effect on control HDFa (Table 3).
(§3) Cells were grown in the presence of the iminosugars D-DNJ, D-NBDNJ, D-AMPDNM and D-MONDNJ at the dosage of 20 μM and after 48 hours were treated for HS and Lamp1 immunofluorescence. Treatment with D-iminosugars had no effect on HDFa and fibroblasts of patients affected by Sanfilippo A and B (MPS IIIA and MPS IIIB) both on HS and lysosome accumulation (Table 4).

[2] = system: fibroblasts of patients affected by Sanfilippo A (MPS IIIA); experiment: HS and Lamp1 immunofluorescence in Sanfilippo A patient fibroblasts; format: cell-based, human; conditions: 20 μM, 48 hours; for Effect on HS and lysosome (Lamp1) accumulation, in words: Sanfilippo A (MPS IIIA) patient fibroblasts
From the text: as §1
(§4) The human cell lines, fibroblasts, from patients with MPS (Sanfilippo disease) used in the examples were obtained from the G. Gaslini Institute of Genoa, “Cell Line and DNA Biobank from Patients Affected by Genetic Diseases”-Telethon Genetic Biobank Network—Telethon research service. These cells are classified with identification codes and by type of disease without allowing patient identification. Cells were collected from the patients, at the Gaslini Institute, with informed consent to the collection extended to conservation and its possible use, for diagnosis and/or research purposes according to current legislation as required by the guidelines followed by the Telethon biobanks. The Network operates abiding by the Italian Privacy and Data Protection Laws in force, including: Italian Data Protection Authority, Personal Data Protection Code, Legislative Decree no. 196, 30 Jun. 2003, published in Official Gazette No. 174 of the Italian Republic, 29 Jul. 2003; Italian Data Protection Authority, General Authorization for the processing of genetic data, 24 Jun. 2011, published in Official Gazette No. 159 of Italian Republic, 11 Jul. 2011.
as §2, §3

[3] = system: fibroblasts of patients affected by Sanfilippo B (MPS IIIB); experiment: HS and Lamp1 immunofluorescence in Sanfilippo B patient fibroblasts; format: cell-based, human; conditions: 20 μM, 48 hours; for Effect on HS and lysosome (Lamp1) accumulation, in words: Sanfilippo B (MPS IIIB) patient fibroblasts
From the text: as §1, §4, §2, §3

[4] = system: HeLa tumor epithelial cells; experiment: HeLa cell proliferation assay; format: cell-based; conditions: after 48 hours
Protocol: Furthermore, treatment with the L-deoxyminosugars L-DNJ, L-NBDNJ, L-AMPDNM and L-MONDNJ caused a decrease of the number of HeLa cells after 48 hours as shown by the cell proliferation assay reported in Table 6.

[5] = system: NAGLU-silenced clone (cl5) of human neuroblastoma cell line SK-NBE; experiment: Immunofluorescence against beta-amyloid peptide 1-42 in NAGLU-silenced SK-NBE clone; format: cell-based; conditions: 20 μM, 48 hours
Protocol: The clone (c15) stably silenced for NAGLU, the causative gene of MPS IIIB, is able to mimic the features of neurodegenerative diseases as it accumulates beta-amyloid fibers in the cytoplasm. In fact, Sanfilippo Syndrome is also defined as “childhood Alzheimer”.
The diseased clone (c15) was grown in the presence of L-DNJ, L-NBDNJ, L-AMPDNM and L-MONDNJ and the corresponding enantiomers D-DNJ, D-NBDNJ, D-AMPDNM and D-MONDNJ at a dosage of 20 μM and after 48 hours were processed by immunofluorescence against the beta-amyloid peptide 1-42. […] On contrary, treatment with the corresponding D-enantiomers has no effect on the reduction of the accumulation of amyloid fibers compared to the untreated clone (mock) (Table 7).

patients with MPS III = conditions: cited from earlier work
[6] = system: NAGLU-silenced clone (cl5) of human neuroblastoma cell line SK-NBE; experiment: Lamp1 immunofluorescence (lysosomal accumulation) in NAGLU-silenced SK-NBE clone, Sanfilippo B model; format: cell-based; conditions: 48 hours; for Cells positive for Lamp1 (%) / Relative Lamp1 fluorescence intensity: cl5 clone, 20 μM; for Effect on lysosomal enlargement and accumulation (lysosomal phenotype), in words: clone 5, 20 μM
From the text: (§5) To study the effects of the compounds on the lysosomal dysfunctions in a neuronal model of Sanfilippo B disease (MPS IIIB), we recently generated stable clones of the human neuroblastoma cell line SK-NBE silenced for the NAGLU gene causative of MPS IIIB [De Pasquale V, et al. (2021). Biochim Biophys Acta Mol Cell Res. 1868, 119113.]. Mimicking the features of Sanfilippo B disease, silencing of NAGLU causes accumulation of heparan sulfate and accumulation of lysosomes in the cytoplasm of stable SK-NBE clones compared to the control (WT) clone.
(§6) Therefore, NAGLU-silenced clone (c15) and control clone (WT) were selected to test the effect of L-deoxyminosugars (L-DNJ, L-NBDNJ, L-NNDNJ, L-HPDNJ, L-NPDNJ, L-AMPDNM and L-MONDNJ) in the hydrochloride form on the lysosomal phenotype of our cell model of Sanfilippo B (MPS IIIB).
(§7) Clone 5 was cultured in the presence of 20 μM of each L-deoxyminosugar under normal growth conditions and after 48 hours the lysosomal accumulation was evaluated with immunofluorescence technique by using a specific antibody against Lamp1 (lysosomal marker). […] Furthermore, upon treatment with the active L-deoxyminosugar the lysosomes are no longer concentrated in the perinuclear region of the cells, as occurs in several lysosomal diseases, but they are physiologically distributed throughout the cytoplasm.

[7] = system: control clone (WT) of human neuroblastoma cell line SK-NBE; experiment: Lamp1 immunofluorescence in control (WT) SK-NBE clone; format: cell-based; conditions: 20 μM, 48 hours
From the text: as §5, §6, §7

[8] = system: NAGLU-silenced clone (cl5) of human neuroblastoma cell line SK-NBE; experiment: Heparan sulfate (HS) immunofluorescence in NAGLU-silenced SK-NBE clone, Sanfilippo B model; format: cell-based; conditions: 48 hours; for Cells positive for HS (%) / Relative HS fluorescence intensity: cl5 clone, 20 μM; for Effect on HS staining / HS accumulation, in words: clone 5, 20 μM
From the text: as §5
Clone 5 was grown in the presence of 20 μM of each L-iminosugar under normal growth conditions and after 48 hours the accumulation of heparan sulfate (HS) was evaluated by immunofluorescence staining for HS.

[9] = system: control clone (WT) of human neuroblastoma cell line SK-NBE; experiment: Heparan sulfate (HS) immunofluorescence in control (WT) SK-NBE clone; format: cell-based; conditions: 20 μM, 48 hours
[10] = system: HeLa tumor epithelial cells; experiment: HS immunostaining in HeLa cells; format: cell-based; conditions: 48 hours
Protocol: To test whether treatment with the selected L-deoxyminosugars (L-DNJ, L-NBDNJ, L-AMPDNM and L-MONDNJ) could interfere with HS synthesis we selected a cell line not mutated for NAGLU and highly decorated by heparan sulfate on the cell membrane. For this purpose, HeLa tumor epithelial cells (purchased from ATCC) were cultured for 48 hours in the presence of the selected L-iminosugars and the amount of HS was evaluated by immunostaining.

| Compound | Cell number [4] | Relative amyloid fluorescence intensity [5] | Cells positive for Lamp1 (%) [6] [%] | Relative Lamp1 fluorescence intensity [6] | Effect on lysosomal enlargement and accumulation (lysosomal phenotype), in words [6] | Cells positive for Lamp1 (%) [7] [%] | Relative Lamp1 fluorescence intensity [7] | Cells positive for HS (%) [8] [%] | Relative HS fluorescence intensity [8] | Effect on HS staining / HS accumulation, in words [8] | Cells positive for HS (%) [9] [%] | Relative HS fluorescence intensity [9] | Relative fluorescence intensity compared to HDFa, HS [1] | Relative fluorescence intensity compared to HDFa, Lamp1 [1] | Relative fluorescence intensity compared to HDFa, HS ([2]; MPS-IIIA fibroblasts) | Relative fluorescence intensity compared to HDFa, Lamp1 ([2]; MPS-IIIA fibroblasts) | Effect on HS and lysosome (Lamp1) accumulation, in words [2] | Relative fluorescence intensity compared to HDFa, HS ([3]; MPS-IIIB fibroblasts) | Relative fluorescence intensity compared to HDFa, Lamp1 ([3]; MPS-IIIB fibroblasts) | Effect on HS and lysosome (Lamp1) accumulation, in words [3] | also measured |
| --- | --- | --- | --- | --- | --- | --- | --- | --- | --- | --- | --- | --- | --- | --- | --- | --- | --- | --- | --- | --- | --- |
| CCCCN1C[C@H](O)[C@@H](O)[C@H](O)[C@H]1CO [D-NBDNJ•HCl] | 4.2 · 10^5 | 0.98 | – | – | – | – | – | – | – | – | – | – | – | – | – | – | – | – | – | – | Cells positive for HS (%) [1]: 4.8%; Cells positive for Lamp1 (%) [1]: 5.0%; Cells positive for HS (%) ([2]; MPS-IIIA fibroblasts): 99.7%; Cells positive for Lamp1 (%) ([2]; MPS-IIIA fibroblasts): 94.7%; Cells positive for HS (%) ([3]; MPS-IIIB fibroblasts): 95.2%; Cells positive for Lamp1 (%) ([3]; MPS-IIIB fibroblasts): 93.8%; Clinical efficacy in MPS III patients, in words (patients with MPS III): no beneficial effects |
| OC[C@@H]1NC[C@@H](O)[C@H](O)[C@H]1O [L-DNJ•HCl] | 2.9 · 10^5 | 0.01 | 25 | 0.95 | dramatic reduction | 2.8 | 1.00 | 5.1 | 1.20 | dramatic reduction | 2.6 | 0.94 | 1.0 | 1.0 | 1.0 | 1.8 | strong reduction | 1.0 | 1.0 | strong reduction | Effect on HS accumulation on the HeLa cell membrane, in words [10]: strong reduction; Relative HS fluorescence intensity [10]: 0.24; Effect on the number of HeLa cells, in words [4]: decrease |
| COCCCCCCCCCN1C[C@@H](O)[C@H](O)[C@@H](O)[C@@H]1CO [L-MONDNJ•HCl, N-methoxynonyl L-DNJ] | 3.1 · 10^5 | 0.01 | 21 | 1.00 | dramatic reduction | 2.4 | 1.05 | 4.9 | 1.15 | dramatic reduction | 2.1 | 0.97 | 1.0 | 1.0 | 1.8 | 2.2 | strong reduction | 1.7 | 1.3 | strong reduction | Effect on HS accumulation on the HeLa cell membrane, in words [10]: strong reduction; Relative HS fluorescence intensity [10]: 0.11; Effect on the number of HeLa cells, in words [4]: decrease |
| CCCCN1C[C@@H](O)[C@H](O)[C@@H](O)[C@@H]1CO [L-NBDNJ•HCl, N-butyl-L-deoxynojirimycin] | 3.6 · 10^5 | 0.01 | 20 | 0.97 | dramatic reduction | 2.6 | 1.07 | 7.4 | 1.13 | dramatic reduction | 2.5 | 0.96 | 1.0 | 1.0 | 1.7 | 1.9 | strong reduction | 1.5 | 1.0 | strong reduction | Effect on HS accumulation on the HeLa cell membrane, in words [10]: strong reduction; Relative HS fluorescence intensity [10]: 0.26; Effect on the number of HeLa cells, in words [4]: decrease |
| O=c1c(-c2ccc(O)cc2)coc2cc(O)cc(O)c12 [genistein] | – | – | – | – | – | – | – | – | – | – | – | – | – | – | – | – | – | – | – | – | Clinical efficacy in MPS III patients, in words (patients with MPS III): ineffective |
